The values below come from patent US20250129083A1, “IMIDAZOTETRAZINE COMPOUNDS AND TREATMENT OF TMZ-RESISTANT CANCERS” (THE BOARD OF TRUSTEES OF THE UNIVERSITY OF ILLINOIS, priority 2022, published 2025).

Like-named read-outs stand apart in the source and are kept apart here. Some results are limits rather than exact numbers.

Data set [1] can be described thus: Hepatic metabolism: stability in mouse liver microsomes. In kind it is in vitro ADME. The note with it: for Stability (2 h, with MLM): percentage remaining relative to t0, mouse liver microsomes, SEM, n ≥ 2; for Stability (2 h, no MLM): percentage remaining, microsomes replaced with PBS.
A further data set relates to T98G GBM cell line. Put plainly: Cell viability assay (Alamar Blue, 7 days), T98G. It is filed as cell-based, human. The protocol: (§1) Cell Culture and Reagents. All cell lines were grown in a 37° C., 5% CO2, humidified environment, in media containing 1% penicillin/streptomycin. Stable cell line generation of GL261 MGMT+ was purchased from Creative Biogene. Cell culture conditions are as follows: cell lines U87, T98G, and RKO were grown in EMEM with 10% FBS. D54, GL261, GL261 MGMT+, and U118MG cell lines were grown in DMEM with 10% FBS. HCT116 cells were grown in RMPI with 10% FBS. D341 Med cells were grown in EMEM with 20% FBS. Temozolomide (TMZ) was purchased from AK Scientific. TMZ analogues were synthesized as described below. Compounds were dissolved in DMSO (1% final concentration, Fisher Chemical) for cell culture studies.
(§2) Cell Viability Assays. Cells were harvested, seeded in a 96-well plate and allowed to adhere. After three hours, compound was added to each well in DMSO (1% final concentration). Cells were incubated for seven days (unless otherwise noted) before viability was assessed by the Alamar Blue assay. Raptinal (20 μM) was used as a dead control.

The next data set concerns U87 GBM cell line. Put plainly: Cell viability assay (Alamar Blue, 7 days), U87. It is filed as cell-based, human. Here is the method:
as §1, §2
Plated 1500 c/w for GL261; 600 c/w for U87; 600 c/w for U118MG; 1500 c/w for GL261 MGMT+ Incubated ovn and added 1 μL of compound in DMSO the next day. Incubated over 7 days; added Alamar Blue to assess cell viability and used 10 μM Raptinal as dead control. Error is SEM, n=3.

In data set [2] the test system is linearized pBR322 plasmid DNA. Conditions: purified linearized DNA, 15 hours at 37° C.
Excerpt: The DNA was subsequently denatured and the sample was eluted on a 1% agarose gel. Interstrand DNA cross-linkers like cisplatin prevent the full denaturation of double-stranded DNA, while DNA alkylating agents like MMS or TMZ cause DNA streaking due to shorter DNA fragments that are formed upon alkaline denaturation of abundantly alkylated DNA.
Procedure was adapted from Healy et al. (61) In brief, pBR322 plasmid DNA was linearized with EcoRI (New England BioLabs) in NEB EcoRI buffer (New England BioLabs) according to the manufacturer's instructions. The cut plasmid DNA was purified using a PCR cleanup kit (QIAquick PCR Purification Kit, Qiagen) and eluted into DNA buffer (10 mM Tris Cl, pH 8.5). The concentration of linearized DNA was quantified by measuring absorbance on a NanoDrop 2000 UV-Vis Spectrophotometer (Thermo Fisher). For each reaction, compound (in DMSO, 5% v/v) was added to DNA (150 ng) in DNA buffer (total volume 10 L) and incubated at 37° C. for the indicated time. Upon completion, 30 L DNA denaturation buffer (60 mg/mL sucrose, 10 mg/mL NaOH, and 0.4 mg/mL bromophenol blue in water) was added to each sample (the same buffer without NaOH was added to non-denatured controls). […] Gels were imaged using a Gel Dox XR+ system (Bio-Rad).
In data set [3] the test system is expanded panel of GBM cell lines with or without MGMT expression. Put plainly: Cell viability in expanded panel of GBM cell lines. In kind it is cell-based. Conditions: 168 h; all cell lines, with or without MGMT; 7 days; read-out: IC50 values across expanded panel of GBM cell lines. Here is the method:
FIG. 1A-C. Selection and evaluation of MGMT-independent imidazotetrazines. (A) IC50 values (M, 7 days) of TMZ and compound 10 in an expanded panel of GBM cell lines. Cell viability was assessed via the Alamar Blue assay, n≥3, error is SEM. (B) Hydrolytic stability of TMZ at pH 7, 7.4, and 8. Percentage of prodrug remaining was quantified by HPLC, n≥2. (C) Hydrolytic stability of compound 10 at pH 7, 7.4, and 8. Percentage of prodrug remaining was quantified by HPLC, n≥2.
FIG. 2A-F. (A) 7 day IC50 values (M) of compound 10 and CPZ in an expanded panel of GBM cell lines. Cell viability was assessed via the Alamar Blue assay, n≥3, error is SEM. (B-E) 7 day dose-response curves of TMZ and CPZ in cell lines with variable MGMT and MMR status. Error is SEM, n≥3. (F) Killing kinetics of CPZ compared to TMZ in the U87 cell line. Cells were treated with compound once and viability was assessed every 24 hours via Alamar Blue assay. Error is SEM, n≥2.
as §2

Data set [4] can be described thus: Hydrolytic stability studies. It is filed as physicochemical. Conditions: PBS; for half-life at 100 μM: 37° C.; for Hydrolytic stability: percentage of prodrug remaining after 2 hours: pH 7.4, 37° C., HPLC. The protocol: Hydrolytic Stability Studies. Compound (100 μM) was incubated at 37° C. in PBS at pH 7.4 (unless otherwise noted). At the indicated time point, an aliquot was collected and analyzed by HPLC. Compound peaks were integrated and compared to the integration at to calculate the percentage of prodrug remaining.

The next data set is described as follows: in vivo. The note with it: CD-1 IGS, mouse, brain and serum, iv, 25 mg/kg.
The mark [5] stands for this setting: Homo sapiens, T98G, 168 h, MGMT (+), Alamar Blue, error SEM, n ≥ 3, read-out: Seven-day IC50, T98G.
[6] abbreviates: Homo sapiens, 168 h, MGMT (−), Alamar Blue, error SEM, n ≥ 3, read-out: Seven-day IC50, U87.
Where [7] appears, read: MGMT (+), Alamar Blue, error SEM, n ≥ 3, read-out: Seven-day IC50, T98G.
Where [8] appears, read: Homo sapiens, T98G, 168 h, MGMT (+) MMR (+), read-out: Activity, T98G.
Setting [9] is: Homo sapiens, 168 h, MGMT (−) MMR (+), 600 c/w, SEM, n=3, read-out: Activity, U87.

Description for in vivo: Biodistribution and Toxicity Studies. […] Brain tissue and blood were collected from each mouse and immediately acidified to prevent prodrug degradation. The concentration of each compound in the serum (FIG. 4A) and brain (FIG. 4B) were quantified by LC-MS/MS.
CD-1 IGS mice were administered compound in 5% DMSO, 10% Tween-20, and 85% SPE-PCD in sterile water (30% w/v) at 25 mg/kg via lateral tail vein injection. Fifteen minutes post injection, mice were sacrificed and blood was collected by lacerating the right auricle with iris scissors. An 18 gauge angiocatheter was inserted through the left ventricle, and all residual circulatory volume was removed by perfusing 0.9% saline solution via an analog peristaltic pump. Blood samples were immediately centrifuged at 13,000 rcf for five minutes and the supernatant collected and acidified with 8.5% aqueous H3PO4. Brains were harvested from the cranial vault, acidified with 0.3% aqueous H3PO4 and flash frozen. Homogenized brain samples were centrifuged twice at 13,000 rcf for ten minutes and supernatant and tissue debris were separated. The resultant supernatant was analyzed, along with plasma, by LC-MS/MS to determine compound concentrations.

For `CC#CCn1nnc2c(C(N)=O)ncn2c1=O` [But], in data set [1], the “Stability (2 h, with MLM)” value was 89 ± 3% and the “Stability (2 h, no MLM)” value stood at 85 ± 1%.
Regarding `NC(=O)c1ncn2c(=O)[nH]nnc12` [Compound 1, 4-oxo-3,4-dihydroimidazo[5,1-d][1,2,3,5]tetrazine-8-carboxamide], the IC50 in the data set on T98G GBM cell line (setting [5]) and in the data set on U87 GBM cell line (setting [6]) was > 1000 µM each time.
Turning to `CCn1nnc2c(C(N)=O)ncn2c1=O` [Compound 2, 3-ethyl-4-oxo-3,4-dihydroimidazo[5,1-d][1,2,3,5]tetrazine-8-carboxamide], the IC50 in the data set with T98G GBM cell line (setting [5]) was > 1000 µM; in the data set on U87 GBM cell line (setting [6]), 470 µM.
For the molecule `CCCn1nnc2c(C(N)=O)ncn2c1=O` [Compound 3, 4-oxo-3-propyl-3,4-dihydroimidazo[5,1-d][1,2,3,5]tetrazine-8-carboxamide], the “DNA alkylation (streaking on gel)” value in data set [2] is reported as “No evidence of DNA alkylation”. The IC50 with T98G GBM cell line (setting [5]) and with U87 GBM cell line (setting [6]) was > 1000 µM in each case.
As to `CC(C)n1nnc2c(C(N)=O)ncn2c1=O` [Compound 4, 3-isopropyl-4-oxo-3,4-dihydroimidazo[5,1-d][1,2,3,5]tetrazine-8-carboxamide], the IC50 in the data set on T98G GBM cell line (setting [5]) and with U87 GBM cell line (setting [6]) was > 1000 µM in each case.
As for `CC(C)(C)n1nnc2c(C(N)=O)ncn2c1=O` [Compound 5, 3-(tert-butyl)-4-oxo-3,4-dihydroimidazo[5,1-d][1,2,3,5]tetrazine-8-carboxamide], the IC50 is > 1000 µM in the data set with T98G GBM cell line (setting [5]) and 570 ± 30 µM in the data set on U87 GBM cell line (setting [6]).
For `CC(C)(C)Cn1nnc2c(C(N)=O)ncn2c1=O` [Compound 6, 3-neopentyl-4-oxo-3,4-dihydroimidazo[5,1-d][1,2,3,5]tetrazine-8-carboxamide], in that order: > 1000 µM and > 1000 µM.
Turning to `COc1ccc(-n2nnc3c(C(N)=O)ncn3c2=O)cc1` [Compound 7, 3-(4-methoxyphenyl)-4-oxo-3,4-dihydroimidazo[5,1-d][1,2,3,S]tetrazine-8-carboxamide], the results for the IC50 in the data set on T98G GBM cell line (setting [5]) and in the data set with T98G GBM cell line (setting [7]) were < 100 µM and 60 ± 10 µM, respectively.
Turning to `C=CCn1nnc2c(C(N)=O)ncn2c1=O` [Compound 9, 3-allyl-4-oxo-3,4-dihydroimidazo[5,1-d][1,2,3,5]tetrazine-8-carboxamide], in data set [2], the “DNA alkylation (streaking on gel)” value was “No evidence of DNA alkylation”. Also, the results for the IC50 in the data set on T98G GBM cell line (setting [5]) and in the data set with U87 GBM cell line (setting [6]) were 320 ± 10 µM and 220 ± 60 µM, respectively.
On to `C#CCn1nnc2c(C(N)=O)ncn2c1=O` [Compound 10, 4-oxo-3-(prop-2-yn-1-yl)-3,4-dihydroimidazo[5,1-d][1,2,3,5]tetrazine-8-carboxamide], for which the IC50 is 77 µM in the data set with T98G GBM cell line (setting [5]), 29 µM in the data set on U87 GBM cell line (setting [6]) and < 100 µM in data set [3]. The half-life at 100 μM in data set [4] (pH 7, calculated from hydrolytic stability data, read-out: Half-life, pH 7) is 97 ± 5 min; in data set [4] (pH 7.4, calculated from hydrolytic stability data, read-out: Half-life, pH 7.4) it was ~30 min; in data set [4] (pH 8, calculated from hydrolytic stability data, read-out: Half-life, pH 8) it was 15 ± 1 min. Besides, in data set [4], the “Hydrolytic stability: percentage of prodrug remaining after 2 hours” value amounted to 8%. For the same molecule, the partition ratio (Kp) at 15 min in “in vivo” amounted to 0.06 ± 0.01.
`NC(=O)c1ncn2c(=O)n(COc3ccccc3)nnc12` [Compound 11, 4-oxo-3-(phenoxymethyl)-3,4-dihydroimidazo[5,1-d][1,2,3,5]tetrazine-8-carboxamide]: the IC50 was < 40 µM with T98G GBM cell line (setting [5]); 35 ± 1 µM with T98G GBM cell line (setting [7]); < 40 µM with U87 GBM cell line (setting [6]); 21 ± 3 µM in the data set on U87 GBM cell line (MGMT (−), Alamar Blue, error SEM, n ≥ 3, read-out: Seven-day IC50, U87).
With `NC(=O)c1ncn2c(=O)n(CNC(=O)c3ccccc3)nnc12` [Compound 12, 3-(benzamidomethyl)-4-oxo-3,4-dihydroimidazo[5,1-d][1,2,3,5]tetrazine-8-carboxamide], the IC50 in the data set with T98G GBM cell line (setting [5]) is 580 ± 100 µM; in the data set on U87 GBM cell line (setting [6]), 240 ± 20 µM.
On to `C#CCn1nnc2c(C(=O)NC)ncn2c1=O` [Compound 16, N-methyl-4-oxo-3-(prop-2-yn-1-yl)-3,4-dihydroimidazo[5,1-d][1,2,3,5]tetrazine-8-carboxamide], for which the figures for the IC50 in the data set with T98G GBM cell line (setting [8]) and with U87 GBM cell line (setting [9]) were 87 ± 7 µM and 40 ± 20 µM, respectively. For the same molecule, in data set [4], the “Hydrolytic stability: percentage of prodrug remaining after 2 hours” value came out at 18%.
For `C#CCn1nnc2c(C(=O)N(C)C)ncn2c1=O` [Compound 17, N,N-dimethyl-4-oxo-3-(prop-2-yn-1-yl)-3,4-dihydroimidazo[5,1-d][1,2,3,5]tetrazine-8-carboxamide], in that order: 40 ± 5 µM, 20 ± 5 µM and 27%.
In the case of `CC#CCn1nnc2c(C(N)=O)ncn2c1=O` [Compound 19, 3-(but-2-yn-1-yl)-4-oxo-3,4-dihydroimidazo[5,1-d][1,2,3,5]tetrazine-8-carboxamide], in data set [2], the “DNA alkylation (streaking on gel)” value was “Trace DNA alkylation” and the DNA interstrand cross-linking result is recorded as “definitively absent”. In addition, the IC50 in the data set on T98G GBM cell line (setting [5]) worked out at 110 µM. The IC50 in the data set on U87 GBM cell line (setting [6]) stood at 37 µM.
`NC(=O)c1ncn2c(=O)n(CCCl)nnc12` [MTZ, 3-(2-chloroethyl)-4-oxo-3,4-dihydroimidazo[5,1-d][1,2,3,5]tetrazine-8-carboxamide, reference compound]: the figures for the IC50 in the data set on T98G GBM cell line (setting [5]) and with U87 GBM cell line (setting [6]) were 85 ± 9 µM and 30 µM, respectively.
As to `CN(C)C(=O)c1ncn2c(=O)n(C)nnc12` [N,N-DiMe-TMZ, reference compound], in data set [1], the “Stability (2 h, with MLM)” value is recorded as 81 ± 2% and the “Stability (2 h, no MLM)” value is on record as 92 ± 3%.
With `C=CC=O` [acrolein, reference compound], in data set [2], the “DNA alkylation (streaking on gel)” value is “no evidence of alkylation” and the DNA interstrand cross-linking entry was “interstrand cross-linking”.
